Source: patent US6706663B2, “Herbicidal 3-heterocyclic substituted benzisothiazole and benzisoxazole compounds” (Wyeth, priority 2000, dated 2004)

Legend:
ORYSAT (Rice, Tebonnet) [1] = assay: Postemergence herbicidal evaluation; assay type: in vivo, Oryza sativa, (L.) Tebonnet; details: postemergence
Procedure, shortened: (§1)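 Seedlings grown about two weeks in flats, sprayed, then kept under standard greenhouse care. Rated visually 4–5 weeks after treatment on a 0–9 scale (stand, vigour, malformation, size, chlorosis, overall appearance) relative to untreated control; repeat tests averaged.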

[2] = test system: IPOHE (Ipomoea hederacea); assay: Postemergence herbicidal evaluation; assay type: in vivo, (L.) Jacq.; details: postemergence
Procedure, shortened: as §1

ORYSAT (Rice, Tebonnet) [3] = assay: Preemergence herbicidal evaluation; assay type: in vivo, Oryza sativa, (L.) Tebonnet; details: rated 4-5 weeks after treatment
[4] = test system: CASOB (Cassia obtusifolia); assay: Postemergence herbicidal evaluation; assay type: in vivo, L.; details: postemergence
Procedure, shortened: as §1

[5] = test system: CHEAL (Chenopodium album); assay: Postemergence herbicidal evaluation; assay type: in vivo, L.; details: postemergence
Procedure, shortened: as §1

[6] = test system: AMBEL (Ambrosia artemisifolia); assay: Postemergence herbicidal evaluation; assay type: in vivo, L.; details: postemergence
Procedure, shortened: as §1

[7] = test system: TRZAWR (Wheat, Winter, cv Riband); assay: Preemergence herbicidal evaluation; assay type: in vivo, Triticum aestivum; details: rated 4-5 weeks after treatment
Procedure, shortened: (§2)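 Applied before emergence as an aqueous acetone spray over seeded soil. Read-out: 0–9 visual rating covering plant stand, vigor, size, chlorosis, malformation and overall appearance compared with control, taken 4–5 weeks after spraying.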

GALAP (Galium aparine) [8] = assay: Postemergence herbicidal evaluation; assay type: in vivo; details: postemergence
Procedure, shortened: as §1

[9] = test system: GLXMAW (Soybean, Williams); assay: Postemergence herbicidal evaluation; assay type: in vivo, Glycine max, (L.) Merr. cv Williams; details: postemergence
Procedure, shortened: as §1

[10] = test system: ECHCG (Echinochloa crus-galli); assay: Preemergence herbicidal evaluation; assay type: in vivo, (L.) Beau; details: rated 4-5 weeks after treatment
Procedure, shortened: as §2

SETVI (Setaria viridis) = assay: Preemergence herbicidal evaluation; assay type: in vivo, (L.) Beau; details: rated 4-5 weeks after treatment
Procedure, shortened: as §2

ZEAMX (Corn, Field) = assay: Postemergence herbicidal evaluation; assay type: in vivo, Zea mays, L.; details: postemergence
Procedure, shortened: as §1

[11] = test system: ABUTH (Abutilon theophrasti); assay: Postemergence herbicidal evaluation; assay type: in vivo, Medic.; details: postemergence
Procedure, shortened: as §1

GALAP (Galium aparine) [12] = assay: Preemergence herbicidal evaluation; assay type: in vivo; details: rated 4-5 weeks after treatment
Procedure, shortened: as §2

Row | SMILES | ORYSAT herbicidal rating (ORYSAT (Rice, Tebonnet) [1]; rate 0.0320 kg/ha) | ORYSAT herbicidal rating (ORYSAT (Rice, Tebonnet) [1]; rate 0.0620 kg/ha) | IPOHE herbicidal rating ([2]; rate 0.0320 kg/ha) | IPOHE herbicidal rating ([2]; rate 0.0620 kg/ha) | Preemergence herbicidal rating ORYSAT (ORYSAT (Rice, Tebonnet) [3]; Rate 0.0620 kg/ha) | Preemergence herbicidal rating ORYSAT (ORYSAT (Rice, Tebonnet) [3]; Rate 0.1250 kg/ha) | Preemergence herbicidal rating ORYSAT (ORYSAT (Rice, Tebonnet) [3]; Rate 0.2500 kg/ha) | CASOB herbicidal rating ([4]; rate 0.0320 kg/ha) | CASOB herbicidal rating ([4]; rate 0.0620 kg/ha) | CHEAL herbicidal rating ([5]; rate 0.0320 kg/ha) | CHEAL herbicidal rating ([5]; rate 0.0620 kg/ha) | AMBEL herbicidal rating ([6]; rate 0.0320 kg/ha) | AMBEL herbicidal rating ([6]; rate 0.0620 kg/ha) | Preemergence herbicidal rating TRZAWR ([7]; Rate 0.0620 kg/ha) | Preemergence herbicidal rating TRZAWR ([7]; Rate 0.1250 kg/ha) | Preemergence herbicidal rating TRZAWR ([7]; Rate 0.2500 kg/ha) | GALAP herbicidal rating (GALAP (Galium aparine) [8]; rate 0.0320 kg/ha) | GALAP herbicidal rating (GALAP (Galium aparine) [8]; rate 0.0620 kg/ha) | GLXMAW herbicidal rating ([9]; rate 0.0320 kg/ha) | GLXMAW herbicidal rating ([9]; rate 0.0620 kg/ha) | other results
1 | Cn1c(C(F)(F)F)cc(=O)n(-c2ccc3snc(C4OCC(CO)O4)c3c2)c1=O (stereo not drawn) [Compound 73, 3-[3-[4-(hydroxymethyl)-1,3-dioxolan-2-yl]-1,2-benzisothiazol-5-yl]-1-methyl-6-(trifluoromethyl)uracil] | 3.0 | 4.0 | 9.0 | 9.0 | 6.0 | 7.0 | 8.0 | 3.0 | 4.0 | 9.0 | 9.0 | 9.0 | 9.0 | 4.0 | 6.0 | 8.0 | 9.0 | 9.0 | 5.5 | 7.5 | Preemergence herbicidal rating ECHCG ([10]; Rate 0.0620 kg/ha): 7.5; Preemergence herbicidal rating ECHCG ([10]; Rate 0.1250 kg/ha): 9.0; Preemergence herbicidal rating ECHCG ([10]; Rate 0.2500 kg/ha): 9.0; Preemergence herbicidal rating SETVI (SETVI (Setaria viridis); Rate 0.0620 kg/ha): 9.0; Preemergence herbicidal rating SETVI (SETVI (Setaria viridis); Rate 0.1250 kg/ha): 9.0; Preemergence herbicidal rating SETVI (SETVI (Setaria viridis); Rate 0.2500 kg/ha): 9.0; ZEAMX herbicidal rating (ZEAMX (Corn, Field); rate 0.0320 kg/ha): 4.5; ZEAMX herbicidal rating (ZEAMX (Corn, Field); rate 0.0620 kg/ha): 5.0; ABUTH herbicidal rating ([11]; rate 0.0320 kg/ha): 9.0; ABUTH herbicidal rating ([11]; rate 0.0620 kg/ha): 9.0; Preemergence herbicidal rating GALAP (GALAP (Galium aparine) [12]; Rate 0.0620 kg/ha): 8.0; Preemergence herbicidal rating GALAP (GALAP (Galium aparine) [12]; Rate 0.1250 kg/ha): 8.0; Preemergence herbicidal rating GALAP (GALAP (Galium aparine) [12]; Rate 0.2500 kg/ha): 9.0
2 | CC(C)C1COC(c2nsc3ccc(-n4c(=O)cc(C(F)(F)F)n(C)c4=O)cc23)=N1 (stereo not drawn) [Compound 74, 3-[3-(4-isopropyl-2-oxazolin-2-yl)-1,2-benzisothiazol-5-yl]-1-methyl-6-(trifluoromethyl)uracil] | 3.5 | 4.0 | 7.0 | 9.0 | 1.0 | 1.0 | 5.0 | 2.0 | 1.0 | 9.0 | 9.0 | 9.0 | 9.0 | 1.0 | 2.0 | 5.0 | 6.0 | 8.0 | 5.5 | 7.0 | Preemergence herbicidal rating ECHCG ([10]; Rate 0.0620 kg/ha): 0.0; Preemergence herbicidal rating ECHCG ([10]; Rate 0.1250 kg/ha): 2.0; Preemergence herbicidal rating ECHCG ([10]; Rate 0.2500 kg/ha): 6.0; Preemergence herbicidal rating SETVI (SETVI (Setaria viridis); Rate 0.0620 kg/ha): 0.0; Preemergence herbicidal rating SETVI (SETVI (Setaria viridis); Rate 0.1250 kg/ha): 2.0; Preemergence herbicidal rating SETVI (SETVI (Setaria viridis); Rate 0.2500 kg/ha): 8.0; ZEAMX herbicidal rating (ZEAMX (Corn, Field); rate 0.0320 kg/ha): 5.0; ZEAMX herbicidal rating (ZEAMX (Corn, Field); rate 0.0620 kg/ha): 5.0; ABUTH herbicidal rating ([11]; rate 0.0320 kg/ha): 9.0; ABUTH herbicidal rating ([11]; rate 0.0620 kg/ha): 9.0; Preemergence herbicidal rating GALAP (GALAP (Galium aparine) [12]; Rate 0.0620 kg/ha): 6.0; Preemergence herbicidal rating GALAP (GALAP (Galium aparine) [12]; Rate 0.1250 kg/ha): 7.0; Preemergence herbicidal rating GALAP (GALAP (Galium aparine) [12]; Rate 0.2500 kg/ha): 9.0
3 | Cn1c(C(F)(F)F)cc(=O)n(-c2ccc3snc(C4=NCCO4)c3c2)c1=O [Compound 75, 1-methyl-3-[3(2-oxazolin-2-yl)-1,2-benzisothiazol-5-yl]-6-(trifluoromethyl)uracil] | 2.5 | 3.5 | 9.0 | 9.0 | 0.0 | 2.0 | 7.0 | 2.0 | 2.0 | 7.0 | 7.0 | 9.0 | 9.0 | 0.0 | 2.0 | 7.0 | 5.0 | 7.0 | 5.5 | 7.0 | Preemergence herbicidal rating ECHCG ([10]; Rate 0.0620 kg/ha): 0.0; Preemergence herbicidal rating ECHCG ([10]; Rate 0.1250 kg/ha): 1.0; Preemergence herbicidal rating ECHCG ([10]; Rate 0.2500 kg/ha): 6.0; Preemergence herbicidal rating SETVI (SETVI (Setaria viridis); Rate 0.0620 kg/ha): 0.0; Preemergence herbicidal rating SETVI (SETVI (Setaria viridis); Rate 0.1250 kg/ha): 1.0; Preemergence herbicidal rating SETVI (SETVI (Setaria viridis); Rate 0.2500 kg/ha): 6.0; ZEAMX herbicidal rating (ZEAMX (Corn, Field); rate 0.0320 kg/ha): 4.5; ZEAMX herbicidal rating (ZEAMX (Corn, Field); rate 0.0620 kg/ha): 5.0; ABUTH herbicidal rating ([11]; rate 0.0320 kg/ha): 9.0; ABUTH herbicidal rating ([11]; rate 0.0620 kg/ha): 9.0; Preemergence herbicidal rating GALAP (GALAP (Galium aparine) [12]; Rate 0.0620 kg/ha): 5.0; Preemergence herbicidal rating GALAP (GALAP (Galium aparine) [12]; Rate 0.1250 kg/ha): 7.0; Preemergence herbicidal rating GALAP (GALAP (Galium aparine) [12]; Rate 0.2500 kg/ha): 9.0
